In patent US20250009745A1, “CDK INHIBITOR” (SHANGHAI QILU PHARMACEUTICAL RESEARCH AND DEVELOPMENT …, priority 2021, published 2025):

Tests used:
Experiment in all cases: CDK enzymology experiment in vitro, capillary mobility shift assay (MSA)
Assay type in all cases: biochemical
[1] = biological target: T1, CDK1 (Homo sapiens, UniProt P06493); conditions: read-out: CDK1 (nM) inhibitory IC50
T1 construct: purchased Carna Company
Procedure, shortened: (§1)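 Recombinant kinases tested against peptide substrates in 1× kinase buffer, with compound added as a 100-fold DMSO stock. Top concentration 1, 10 or 30 μM, 3-fold dilutions over 10 points, in duplicate. Substrate conversion read by Caliper EZ Reader, normalised to no-enzyme and no-compound controls, and IC50 fitted with a variable-slope log(inhibitor)–response model.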

[2] = biological target: T2, CDK2 (Homo sapiens, UniProt P24941); conditions: read-out: CDK2 (nM) inhibitory IC50
T2 construct: purchased Carna Company
Procedure, shortened: as §1

[3] = biological target: T3, CDK4 (Homo sapiens, UniProt P11802); conditions: read-out: CDK4 (nM) inhibitory IC50
T3 construct: purchased Carna Company
T3 sequence (P11802 whole entry): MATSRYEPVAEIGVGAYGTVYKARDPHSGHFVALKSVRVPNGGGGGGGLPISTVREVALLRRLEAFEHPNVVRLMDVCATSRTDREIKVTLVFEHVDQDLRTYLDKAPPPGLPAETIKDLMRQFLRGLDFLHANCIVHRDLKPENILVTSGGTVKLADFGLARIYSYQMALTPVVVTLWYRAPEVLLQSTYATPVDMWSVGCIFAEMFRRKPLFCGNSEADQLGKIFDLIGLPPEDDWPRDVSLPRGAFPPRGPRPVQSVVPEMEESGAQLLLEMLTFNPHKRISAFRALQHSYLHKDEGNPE
T3 sequence (P30281 whole entry partner): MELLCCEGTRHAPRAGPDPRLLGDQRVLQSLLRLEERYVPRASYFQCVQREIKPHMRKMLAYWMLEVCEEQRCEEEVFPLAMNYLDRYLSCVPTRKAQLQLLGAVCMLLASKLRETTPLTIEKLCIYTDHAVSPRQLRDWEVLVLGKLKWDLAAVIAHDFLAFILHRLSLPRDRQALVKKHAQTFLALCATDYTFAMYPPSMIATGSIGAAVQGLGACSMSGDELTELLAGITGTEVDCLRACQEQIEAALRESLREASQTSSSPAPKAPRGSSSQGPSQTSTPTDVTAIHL
Procedure, shortened: as §1

[4] = biological target: T4, CDK7 (Homo sapiens, UniProt P50613); conditions: read-out: CDK7 (nM) inhibitory IC50
T4 construct: purchased Carna Company
T4 sequence (P50613 whole entry): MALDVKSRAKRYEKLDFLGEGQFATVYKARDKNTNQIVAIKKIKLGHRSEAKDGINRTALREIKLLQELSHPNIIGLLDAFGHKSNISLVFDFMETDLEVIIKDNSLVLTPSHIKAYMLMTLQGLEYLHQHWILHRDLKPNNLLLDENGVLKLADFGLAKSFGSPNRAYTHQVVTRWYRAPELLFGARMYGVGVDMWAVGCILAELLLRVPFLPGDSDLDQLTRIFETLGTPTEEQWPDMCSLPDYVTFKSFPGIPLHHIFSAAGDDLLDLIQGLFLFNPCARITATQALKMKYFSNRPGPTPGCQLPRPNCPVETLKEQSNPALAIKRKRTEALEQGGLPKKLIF
T4 sequence (P51946 whole entry partner): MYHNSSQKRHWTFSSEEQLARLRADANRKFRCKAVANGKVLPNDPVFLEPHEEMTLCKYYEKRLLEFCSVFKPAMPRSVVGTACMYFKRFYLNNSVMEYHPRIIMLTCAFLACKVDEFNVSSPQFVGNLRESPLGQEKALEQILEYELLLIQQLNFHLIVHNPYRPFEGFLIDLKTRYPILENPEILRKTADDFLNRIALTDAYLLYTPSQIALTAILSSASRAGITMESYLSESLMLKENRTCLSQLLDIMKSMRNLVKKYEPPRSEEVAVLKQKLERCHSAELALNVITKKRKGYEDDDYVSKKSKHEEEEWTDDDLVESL
T4 sequence (P51948 whole entry partner): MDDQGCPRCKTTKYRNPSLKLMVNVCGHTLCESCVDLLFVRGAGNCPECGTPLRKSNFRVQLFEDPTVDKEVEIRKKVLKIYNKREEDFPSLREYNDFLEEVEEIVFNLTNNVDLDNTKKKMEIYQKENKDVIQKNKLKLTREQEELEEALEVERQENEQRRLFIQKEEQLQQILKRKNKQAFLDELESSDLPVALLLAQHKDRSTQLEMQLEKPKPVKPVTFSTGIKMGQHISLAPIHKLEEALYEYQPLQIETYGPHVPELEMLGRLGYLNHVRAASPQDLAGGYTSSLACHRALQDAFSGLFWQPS
Procedure, shortened: as §1

[5] = biological target: T5, CDK9 (Homo sapiens, UniProt P50750); conditions: read-out: CDK9 (nM) inhibitory IC50
T5 construct: purchased Carna Company
T5 sequence (P50750 whole entry): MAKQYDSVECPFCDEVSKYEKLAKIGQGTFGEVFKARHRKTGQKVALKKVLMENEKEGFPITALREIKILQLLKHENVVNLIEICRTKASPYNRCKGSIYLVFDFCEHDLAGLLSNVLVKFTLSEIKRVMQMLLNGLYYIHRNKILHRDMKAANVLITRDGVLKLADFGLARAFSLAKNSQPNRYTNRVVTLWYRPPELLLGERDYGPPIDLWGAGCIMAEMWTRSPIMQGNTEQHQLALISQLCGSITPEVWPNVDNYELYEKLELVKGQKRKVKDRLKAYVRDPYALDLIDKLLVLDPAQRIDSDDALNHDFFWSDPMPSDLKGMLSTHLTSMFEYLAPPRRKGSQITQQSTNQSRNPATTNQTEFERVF
T5 sequence (O60563 whole entry partner): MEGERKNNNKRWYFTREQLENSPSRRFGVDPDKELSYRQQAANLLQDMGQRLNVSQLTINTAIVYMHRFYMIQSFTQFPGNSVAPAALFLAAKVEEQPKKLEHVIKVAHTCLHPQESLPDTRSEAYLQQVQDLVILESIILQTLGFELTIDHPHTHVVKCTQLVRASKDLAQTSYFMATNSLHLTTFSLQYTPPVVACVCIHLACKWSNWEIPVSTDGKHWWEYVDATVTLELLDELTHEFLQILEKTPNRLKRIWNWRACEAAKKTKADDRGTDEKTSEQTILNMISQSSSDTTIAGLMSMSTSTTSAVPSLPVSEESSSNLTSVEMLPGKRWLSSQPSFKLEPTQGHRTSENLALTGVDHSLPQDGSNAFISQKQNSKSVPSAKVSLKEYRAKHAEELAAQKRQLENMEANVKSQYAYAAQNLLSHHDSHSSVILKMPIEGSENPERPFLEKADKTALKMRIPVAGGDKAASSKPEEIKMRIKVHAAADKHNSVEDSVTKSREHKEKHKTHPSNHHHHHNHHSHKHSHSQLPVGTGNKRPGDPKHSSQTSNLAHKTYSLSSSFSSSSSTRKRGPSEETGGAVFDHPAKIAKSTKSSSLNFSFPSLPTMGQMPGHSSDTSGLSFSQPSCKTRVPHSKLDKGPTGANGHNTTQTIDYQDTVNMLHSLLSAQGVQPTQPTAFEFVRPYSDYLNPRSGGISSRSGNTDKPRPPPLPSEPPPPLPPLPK
Procedure, shortened: as §1

[6] = biological target: T6, CDK6 (Homo sapiens, UniProt Q00534); conditions: read-out: CDK6 (nM) inhibitory IC50
T6 construct: purchased Carna Company
T6 sequence (Q00534 whole entry): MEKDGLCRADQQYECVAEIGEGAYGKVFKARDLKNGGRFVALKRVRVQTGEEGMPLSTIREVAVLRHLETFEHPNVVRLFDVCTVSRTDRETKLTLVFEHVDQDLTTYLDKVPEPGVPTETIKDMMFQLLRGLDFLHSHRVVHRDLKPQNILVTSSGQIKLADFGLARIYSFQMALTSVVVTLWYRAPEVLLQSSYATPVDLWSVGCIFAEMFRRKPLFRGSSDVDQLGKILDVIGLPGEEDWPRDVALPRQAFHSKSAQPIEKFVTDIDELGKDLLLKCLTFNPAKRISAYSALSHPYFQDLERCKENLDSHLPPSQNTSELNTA
T6 sequence (P30281 whole entry partner): as the sequence (P30281 whole entry partner) above

T1 sequence (P06493 whole entry): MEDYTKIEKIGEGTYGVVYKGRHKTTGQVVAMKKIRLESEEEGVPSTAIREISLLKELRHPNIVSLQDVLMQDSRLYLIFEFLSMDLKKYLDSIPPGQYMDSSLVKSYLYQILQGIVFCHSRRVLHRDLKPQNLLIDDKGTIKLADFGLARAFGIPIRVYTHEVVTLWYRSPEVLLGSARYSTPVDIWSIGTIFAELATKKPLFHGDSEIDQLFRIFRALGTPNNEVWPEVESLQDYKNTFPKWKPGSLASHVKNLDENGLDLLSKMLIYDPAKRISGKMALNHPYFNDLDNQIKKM
T1 sequence (P14635 whole entry partner): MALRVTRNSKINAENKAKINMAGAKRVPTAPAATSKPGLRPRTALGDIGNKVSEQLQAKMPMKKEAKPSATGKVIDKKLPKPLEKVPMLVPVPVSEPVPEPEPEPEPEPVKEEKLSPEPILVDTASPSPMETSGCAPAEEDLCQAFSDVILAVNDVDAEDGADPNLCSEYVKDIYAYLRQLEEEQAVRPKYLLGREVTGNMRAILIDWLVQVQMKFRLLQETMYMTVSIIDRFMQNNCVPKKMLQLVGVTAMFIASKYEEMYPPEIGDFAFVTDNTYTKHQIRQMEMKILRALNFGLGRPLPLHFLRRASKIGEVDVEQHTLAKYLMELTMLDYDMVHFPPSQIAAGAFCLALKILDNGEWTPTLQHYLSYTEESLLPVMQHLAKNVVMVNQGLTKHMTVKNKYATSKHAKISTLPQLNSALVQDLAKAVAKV

Row | SMILES | IC50 [1] [nM] | IC50 [2] [nM] | IC50 [3] [nM] | IC50 [4] [nM] | IC50 [5] [nM] | IC50 [6] [nM]
1 | O=S(=O)(c1ccc([C@@H]2CCNC2)cc1)N1CCC(Nc2ncc(C(F)(F)F)c(O[C@H]3CCOC3)n2)CC1 (single isomer, unassigned) [Compound 151] | 10 to 50 | 0.5 to 2.5 | 0.5 to 2.5 | 10 to 50 | 100 to 1000 | 0.5 to 2.5
2 | O=S(=O)(c1ccc([C@H]2CCNC2)cc1)N1CCC(Nc2ncc(C(F)(F)F)c(O[C@H]3CCOC3)n2)CC1 (single isomer, unassigned) [Compound 152] | 2.5 to 10 | 0.5 to 2.5 | 0.5 to 2.5 | 10 to 50 | 100 to 1000 | 0.5 to 2.5
3 | Cn1cc(S(=O)(=O)N2CCC(Nc3ncc(C#N)c(NC4CCCC4)n3)CC2)cn1 [Compound 31] | 50 to 100 | 0.5 to 2.5 | 2.5 to 10 | 100 to 1000 | 100 to 1000 | 0.5 to 2.5
4 | Cn1cnc(S(=O)(=O)N2CCC(Nc3ncc(C#N)c(NC4CCCC4)n3)CC2)c1 [Compound 34] | 10 to 50 | 0.5 to 2.5 | 2.5 to 10 | 100 to 1000 | 100 to 1000 | 10 to 50
5 | Cn1cc(S(=O)(=O)N2CCC(Nc3ncc(C#N)c(N[C@H]4CCOC4)n3)CC2)cn1 [Compound 44] | 100 to 1000 | 2.5 to 10 | 50 to 100 | 100 to 1000 | > 1000 | 50 to 100
6 | Cn1cc(-c2ccc(S(=O)(=O)N3CCC(Nc4ncc(C(F)(F)F)c(O[C@H]5CCOC5)n4)CC3)cc2)cn1 [Compound 142] | 0.5 to 2.5 | < 0.5 | 0.5 to 2.5 | 2.5 to 10 | 10 to 50 | 0.5 to 2.5
7 | O=S(=O)(c1ccc(N2CC3(CNC3)C2)cc1)N1CCC(Nc2ncc(C(F)(F)F)c(O[C@H]3CCOC3)n2)CC1 [Compound 144] | 2.5 to 10 | < 0.5 | 0.5 to 2.5 | 2.5 to 10 | 100 to 1000 | 0.5 to 2.5
8 | O=S(=O)(c1ccc(C2=CCNC2)cc1)N1CCC(Nc2ncc(C(F)(F)F)c(O[C@H]3CCOC3)n2)CC1 [Compound 146] | 2.5 to 10 | < 0.5 | 0.5 to 2.5 | 2.5 to 10 | 100 to 1000 | 0.5 to 2.5
9 | O=S(=O)(c1ccc(N2CCNC(C(F)(F)F)C2)cc1)N1CCC(Nc2ncc(C(F)(F)F)c(O[C@H]3CCOC3)n2)CC1 (stereo partly drawn) [Compound 147] | 2.5 to 10 | 0.5 to 2.5 | 0.5 to 2.5 | 10 to 50 | 50 to 100 | 0.5 to 2.5
10 | CN(C)CCN(c1nc(NC2CCN(S(=O)(=O)c3cnn(C)c3)CC2)ncc1C#N)C1CCCC1 [Compound 148] | 100 to 1000 | 10 to 50 | 100 to 1000 | 100 to 1000 | > 1000 | 100 to 1000
11 | O=S(=O)(c1ccc(N2CCNCC2)nc1)N1CCC(Nc2ncc(C(F)(F)F)c(O[C@H]3CCOC3)n2)CC1 [Compound 153] | 2.5 to 10 | < 0.5 | 0.5 to 2.5 | 2.5 to 10 | 100 to 1000 | 0.5 to 2.5
12 | Cc1cc(S(=O)(=O)N2CCC(Nc3ncc(C(F)(F)F)c(O[C@H]4CCOC4)n3)CC2)ccc1C1=CCNCC1 [Compound 154] | 10 to 50 | 0.5 to 2.5 | 0.5 to 2.5 | 10 to 50 | 100 to 1000 | 0.5 to 2.5
13 | O=S(=O)(c1ccc(Br)cc1)N1CCC(Nc2ncc(C(F)(F)F)c(C=C3CCCC3)n2)CC1 [Compound 200] | – | 10 to 50 | 100 to 1000 | 50 to 100 | – | –
14 | CS(=O)(=O)N1CCC(Nc2ncc(C(F)(F)F)c(NC3CCCC3)n2)CC1 [Example 5, N^4-Cyclopentyl-N^2-(1-(methylsulfonyl)piperidin-4-yl)-5-(trifluoromethyl)pyrimidine-2,4-diamine] | 100 to 1000 | 2.5 to 10 | 10 to 50 | 10 to 50 | 100 to 1000 | 10 to 50
15 | Cn1cc(S(=O)(=O)N2CCC(Nc3ncc(C(F)(F)F)c(O[C@H]4CCOC4)n3)CC2)cn1 [Example 7, (S)—N-(1-((1-Methyl-1H-pyrazol-4-yl)sulfonyl)piperidin-4-yl)-4-((tetrahydrofuran-3-yl)oxy)-5-(trifluoromethyl)pyrimidin-2-amine] | 10 to 50 | 0.5 to 2.5 | 10 to 50 | 10 to 50 | 100 to 1000 | 10 to 50
16 | Cn1cc(-c2ccc(S(=O)(=O)N3CCC(Nc4ncc(C#N)c(N[C@H]5CCOC5)n4)CC3)cc2)cn1 [Example 8, (S)-2-((1-((4-(1-Methyl-1H-pyrazol-4-yl)phenyl)sulfonyl)piperidin-4-yl)amino)-4-((tetrahydrofuran-3-yl)amino)pyrimidine-5-carbonitrile] | 10 to 50 | 0.5 to 2.5 | 2.5 to 10 | 50 to 100 | 100 to 1000 | 0.5 to 2.5
17 | N#Cc1cnc(NC2CCN(S(=O)(=O)c3ccc(C4=CCNCC4)cc3)CC2)nc1NC1CCCC1 [Example 15, 4-(Cyclopentylamino)-2-((1-((4-(1,2,3,6-tetrahydropyridin-4-yl)phenyl)sulfonyl)piperidin-4-yl)amino)pyrimidine-5-carbonitrile] | 10 to 50 | 0.5 to 2.5 | 0.5 to 2.5 | 10 to 50 | 100 to 1000 | 0.5 to 2.5

Second part, the molecule after the results:

Row | IC50 [1] [nM] | IC50 [2] [nM] | IC50 [3] [nM] | IC50 [4] [nM] | IC50 [5] [nM] | IC50 [6] [nM] | SMILES
18 | 2.5 to 10 | < 0.5 | 0.5 to 2.5 | 2.5 to 10 | 100 to 1000 | 0.5 to 2.5 | O=S(=O)(c1ccc([C@@H]2CCCNC2)cc1)N1CCC(Nc2ncc(C(F)(F)F)c(O[C@H]3CCOC3)n2)CC1 (single isomer, unassigned) [Example 114]
19 | 2.5 to 10 | < 0.5 | 0.5 to 2.5 | 2.5 to 10 | 100 to 1000 | 0.5 to 2.5 | O=S(=O)(c1ccc([C@H]2CCCNC2)cc1)N1CCC(Nc2ncc(C(F)(F)F)c(O[C@H]3CCOC3)n2)CC1 (single isomer, unassigned) [Example 115]
20 | 10 to 50 | < 0.5 | 0.5 to 2.5 | 10 to 50 | 100 to 1000 | 0.5 to 2.5 | O=S(=O)(c1ccc(C2CCNCC2)c(F)c1)N1CCC(Nc2ncc(C(F)(F)F)c(O[C@H]3CCOC3)n2)CC1 [Compound 122]
21 | 2.5 to 10 | < 0.5 | 0.5 to 2.5 | 2.5 to 10 | 100 to 1000 | 0.5 to 2.5 | O=S(=O)(c1ccc(C2CNC2)cc1)N1CCC(Nc2ncc(C(F)(F)F)c(O[C@H]3CCOC3)n2)CC1 [Compound 131]
22 | 2.5 to 10 | < 0.5 | 0.5 to 2.5 | 10 to 50 | 100 to 1000 | 0.5 to 2.5 | CN(C)C1CCN(c2ccc(S(=O)(=O)N3CCC(Nc4ncc(C(F)(F)F)c(O[C@H]5CCOC5)n4)CC3)cc2)CC1 [Compound 132]
23 | 2.5 to 10 | < 0.5 | 0.5 to 2.5 | 10 to 50 | 50 to 100 | 0.5 to 2.5 | CC1(O)CCN(c2ccc(S(=O)(=O)N3CCC(Nc4ncc(C(F)(F)F)c(O[C@H]5CCOC5)n4)CC3)cc2)CC1 [Compound 133]
24 | 2.5 to 10 | < 0.5 | 0.5 to 2.5 | 10 to 50 | 100 to 1000 | 0.5 to 2.5 | O=S(=O)(c1ccc(N2CC[C@H](O)C2)cc1)N1CCC(Nc2ncc(C(F)(F)F)c(O[C@H]3CCOC3)n2)CC1 [Compound 141]
